Consider five compounds from patent US5627173A, “Phosphonoacetic acid derivatives and their use for treating degenerative joint disorders” (Hoechst Aktiengesellschaft, priority 1995, dated 1997).

Assay [1] deals with isolated guinea pig trachea. Description: Antagonism of KCl-induced contraction of the isolated guinea pig trachea. Conditions: Cavia porcellus; agonist KCl; read-out: Anticontractile effect (trachea), concentration range needed to bring about a dilatation corresponding to the ED50 range. The text has this:
(§1) The compounds according to the invention are used as antagonists of the contraction of various parts of organs, in this case the isolated guinea pig trachea. The agonists used were KCl, PGF2a, calcium ionophore A23187 and substance P:
Products with a non-specific effect generally show a spasmolytic effect with respect to all agonists. KCI is representative here of non-specific, receptor-independent contraction because KCl-induced contractions are produced predominantly physically, that is to say by increasing the K+ concentration in the outside medium, and change the resting potential of the cell.
(§2) The guinea pigs were sacrificed by lethal anesthesia with laughing gas. The trachea was dissected out over its entire length and cut into 15 individual cartilage rings. In each case five rings were connected together to form a chain and fixed in an organ bath under a preload of 3 g. After an equilibration period of 45 minutes, a contraction was induced with the agonist. Cumulative addition of the antagonist (test product) took place at the plateau 5 of the maximum. Evaluation took place as % change in strength based on the maximum contraction. The test was carried out at 37° C., and the physiological nutrient solution used was a modified Krebs-Henseleit solution through which 95% by volume 02 and 5% by volume CO2 was bubbled.
(§3) Test animals: Albino guinea pigs (102), weight: 200 to 300 g, male or female
(§4) Composition of the organ bath (nutrient solution):
(§5) Vehicle: Double-distilled water, ethanol or isopropanol; Administration: into the organ bath Number of administrations: cumulative, single doses for SP

The test system of assay [2] is isolated guinea pig trachea. Description: Antagonism of PGF2α-induced contraction of the isolated guinea pig trachea. The note with it: Cavia porcellus; agonist PGF2α; read-out: Anticontractile effect (trachea), concentration range needed to bring about a dilatation corresponding to the ED50 range.
Excerpt: as §1
Inhibition of contractions induced by this cyclooxygenase product is possible only by competitive antagonism at the receptor or of the downstream signal pathway.
as §2, §3, §4, §5

Assay [3] deals with isolated guinea pig trachea. Description: Antagonism of calcium ionophore A23187-induced contraction of the isolated guinea pig trachea. The note with it: Cavia porcellus; agonist Ca ionophore A23187; read-out: Anticontractile effect (trachea), concentration range needed to bring about a dilatation corresponding to the ED50 range.
Excerpt: as §1
c) Calcium ionophore A23187 (Calbiochem, Bad Soden) brings about, due to increased uptake of calcium ions, an activation of all calcium-dependent signal cascades in the cell.
as §2, §3, §4, §5

Assay [4] concerns isolated guinea pig trachea. Description: Antagonism of substance P-induced contraction of the isolated guinea pig trachea. The note with it: Cavia porcellus; agonist substance P; read-out: Anticontractile effect (trachea), concentration range needed to bring about a dilatation corresponding to the ED50 range.
Excerpt: as §1
Antagonism is possible on the one hand by specific receptor antagonists, and on the other hand by inhibition of the downstream signal pathway.
as §2, §3, §4, §5

Assay [5] relates to isolated strips of guinea pig lung. Kind of assay: Antagonism of LTD4-induced contraction of isolated strips of guinea pig lung. Conditions: Cavia porcellus; agonist LTD4; read-out: Anticontractile effect (lung), concentration range corresponding to the IC50 value. The text has this:
(§6) The test was based on the same principle as the test indicated in Pharmacological Test 5; however, strips of lung were used in this case.
(§7) The guinea pig was sacrificed under anesthesia with laughing gas. The entire lung tract was cut out starting from the trachea. The lobes of the lungs were cut in circular fashion to produce strips about 3 mm wide. The strips of the upper lobes were divided up in order to obtain a total of six strips of approximately equal size. The strips were suspended in the organ baths under a preload of 4 g. Modified Krebs-Henseleit solutions were used as nutrient solution. When platelet activating factor (PAF) was used as agonist, the composition of this solution corresponded to that for the agonist SP in Pharmacological Test 5; a Krebs-Henseleit solution as in the case of the agonist KCI (Pharm. Test 5) was used for the agonist LTD4. 95% by volume 02, 5% by volume CO2 was bubbled through the bath, and the bath temperature was 37° C. The test is carried out by a therapeutic/cumulative method with dose levels of 1, 3, 6 and 10 μg/ml.
(§8) The test animals, organ bath, vehicle, mode of administration corresponded to that stated for Pharmacological Test 5.

Assay [6] has the same test system. Description: Antagonism of PAF-induced contraction of isolated strips of guinea pig lung. The note with it: Cavia porcellus; agonist PAF; read-out: Anticontractile effect (lung), concentration range corresponding to the IC50 value.
Excerpt: as §6, §7, §8

In the next assay the test system is Wistar-Lewis rats. Description: Adjuvant arthritis. The note with it: 12.6 mg/kg intraperitoneal, twice a day for 18 days. Format: in vivo. The method, then:
The investigations were carried out as described in EP 50 42 740.

Assay [7] has as its system RAW 264.7 cells. Kind of assay: Release of tumor necrosis factor α from RAW 264.7 cells. The note with it: Mus musculus, RAW264.7, LPS, read-out: inhibition of TNFα formation compared with an untreated control. The class given is cell-based. The method, then:
(§9) Culture medium: DMEM+10% FCS+penicillin/streptomycin (50 U/SO μg/ml)
(§10) Culture conditions: 37° C., 10% CO2
(§11) Culture dishes: 24-well dishes
(§12) In each case 10^6 cells/ml/well were incubated for 24 hours (h)
(§13) Addition of 10 μl of test substance (=100 μM in the test, dissolved in double-distilled water)
Addition of 50 μl of lipopolysaccharide (LPS) from E. coli (=10 pg/ml in the test, dissolved in culture medium) […]
Tumor necrosis factor α was determined using a Factortest X mouse TNFα ELISA kit from Genzyme (R(1sselsheim, Geromany), Order no. 80-2802-00.

Assay [8] has as its system RAW 264.7 cells. Description: Release of substance P from RAW 264.7 cells. Conditions: Mus musculus, RAW264.7, stimulated by 50 ng of LPS for 4 hours, read-out: inhibition of substance P production. The class given is cell-based. The protocol:
as §9, §10, §11, §12, §13
Release of substance P took place as described for TNFα, but the cells were stimulated by 50 ng of LPS for 4 hours. Substance P was determined using a substance P RIA test kit from Peninsula Laboratories (Belmont, USA) Test no. RIK-7451.

The subject of a further assay is matrix metalloproteases. Description: Inhibition of matrix metalloproteases (MMP from rabbit synoviocytes HIG-82, fluorescent substrate). Format: biochemical. The protocol:
After confluent cell growth, the MMP expression was induced in the serum-free 3F12 HAM medium by adding 0.3 μmol/l phorbol 12-myristate 13-acetate. The supernatant was removed after incubating at 37° C. for 20 hours.
Activation of the MMP: The supernatant was activated with trypsin (5 μg/ml). After 15 minutes at 37° C., the activation was stopped by adding 1 mmol/l phenylmethylsulfonyl fluoride (PMSF) and incubating for a further 10 minutes. The total volume of the mixture was 210 μl.
The test substance was added in the stated concentration (see table). […] The reaction was stopped after 30 minutes by adding 10 mmol/l EDTA. The total-volume of the mixture was 320 μl . The parameters measured were the fluorescence intensities at […]. In order to take account of the possible intrinsic fluorescence of the test substances, the fluorescence intensities from parallel measurements without substrate were subtracted from the measurements with substrate. All the steps took place at 20° C.

The next assay concerns rat liver microsomes. Kind of assay: Inhibition of microsomal lipid peroxidation. Conditions: 37° C., 10 minutes. Format: biochemical. The protocol: Obtaining rat liver microsomes: All steps were carried out at 0° C. The liver from a rat was thoroughly rinsed with 0.9% NaCl solution to remove all the hemoglobin. The liver wascut into pieces and then treated in a Potter in 10 mM Tris/HCl pH 7.4; 250 mM sucrose (10 ml of buffer/g of liver). The first centrifugation was at 600 x g for 55 minutes to remove cell detritus. The supernatant was then centrifuged at 12000 x g for 10 minutes and was adjusted with solid CaCI2 (117.6 mg/100 ml) to a concentration of 8 mM. A microsome pellet was obtained by centrifugation at 25000 x g (15 minutes). This pellet was ohomogenized in the same volume of buffer (10 mM Tris/BCI pH 7.4; 150 mMKCl) and again centrifuged at 25000 x g for 15 minutes.
Peroxidation by rat liver microsomes: A test mixture consisted of 20 μl of microsomes (100 mg/ml), see above, dissolved in a buffer (250 mM Tris/HCI pB 6.6; 750 mMKCl), 10 iL1 of 50 mM MgCI2, 10 μl of 200 mM isocitric acid, 10 μl of 4 mM NADP (3.028 mg/ml in water), 10 μl of 25 mM niacinamide, 10 μl of isocitrate dehydrogenase (Boehringer, diluted 1:100) and 20 μl of water or test substance. The reaction was started with 10 μl of 0.25 mM FeSO4. […] The malonaldehyde which was formed was converted by adding 500 μl of 0.67 percent thiobarbituric acid and incubating at 90° C. for 30 min into a pink-colored compound which was measured in a photometer at 532 nm. […]

The test system of another assay is interleukin-1β. Description: Inhibition of release of interleukin-1β from human mononuclear cells. The class given is cell-based. Conditions: 10 .parallel.mol/l (so in the source), IL-1β, LPS-stimulated, 20 to 22 hours. The protocol:
Obtaining mononuclear cells from human blood: 10 ml of human blood stabilized with 1 ml of 3.8 percent sodium citrate solution were diluted with 10 ml of PM16 (Serra, Heidelberg), and an underlayer of 15 ml of Lymphoprep (Dr. Molter GmbH, Heidelberg) was introduced. The samples were centrifuged at 400 x g (Minifuge 2 Heraeus, Osterode) at room temperature for 40 minutes. The mononuclear cells were visible as a white ring at the Lymphoprep/plasma boundary. This ring was cautiously removed with a syringe, diluted with the same volume of PM16 and centrifuged at 400 x g for 10 minutes. The precipitate was washed with ^~ 10 ml of RPMI1640 (+300 mg/I L-glutamine, Gibco, Eggenstein). After the cells had been suspended in ^~ 1 ml of RPMI1640 (+300 mg/I L-glutamine, +25 mM HEPES, +100 μg/ml streptomycin, +100 μg/ml penicillin), the cell density was determined with a JT Coulter Counter (Coulter Diagnostics) and adjusted to 5.10^6 /ml. 90% of the resulting cells were lymphocytes and 10% were monocytes.
Inhibition of release of interleukin-1β: 230 μl of mononuclear cells were incubated with 10 μl of test substance (10 μM in dimethyl sulfoxide (DMSO)/water=1/10) and 10 μl of a lipopolysaccharide solution (500 μg dissolved in 1 ml of DMSO and diluted 1/10 with water before starting the test, from Salmonella abortus equi, (Sigma, Deisenhofen) at 37° C., 5% CO2 for 20 to 22 hours. The samples were cooled to 0° C. in an ice bath and centrifuged in a Sigma centrifuge (2 minutes; 2000 revolutions per minute (rpm)). Aliquots of the supernatant were determined using a commercially available ELISA 5(Biermann, Bad Nauheim).
All active substances were tested at a concentration of 10 .parallel.mol/l. IL-1β release was tested in each case.

In the next assay the test system is phosphodiesterase III. Kind of assay: Inhibition of phosphodiesterase III activity. Format: biochemical. The note with it: 100 μM. The protocol: The test was carried out with the phosphodiesterase of Boehringer Mannheim (Mannheim, Germany), Order no. 108 243 by the method of T. SAEKI, I. SAITO, Biochem. Pharm. 46, No. 5, […], pages 833-839.

SMILES strings stand for the structures. Converted amounts (≈) assume the structure as drawn.

As to `CCOP(=O)(OCC)/C(C#N)=C/c1ccc(OC)c(OC)c1` [Compound 38, Z- and E-2-(diethoxyphosphinyl)-3-(3,4-dimethoxyphenyl) acrylonitrile], the EC50 was greater than 10 µg/mL in assay [1], 1 to 3 µg/mL (≈ 3.07 to 9.22 µM) in assay [2], roughly 3 µg/mL (≈ 9.22 µM) in [3] and 3 to 10 µg/mL (≈ 9.22 to 30.7 µM) in assay [4]. The IC50 in [5] is roughly 1 µg/mL (≈ 3.07 µM); in [6], less than 0.1 µg/mL. In addition, the “inhibition of the increase in the paw volume compared with an untreated control group” value with Wistar-Lewis rats amounted to 98%. The results for the inhibition at 100 µM in the assay on RAW 264.7 cells [7] (incubation for 4 h) and in the assay on RAW 264.7 cells [8] were 16% and 100%, respectively.
For the compound `CCOC(=O)C(=Cc1ccc(O)c(O)c1)P(=O)(OCC)OCC` [Compound 47, Ethyl 2-(diethoxyphosphinyl)-3-(3,4-dihydroxyphenyl) propenoate], the “Inhibition of MMP, Inhibition (%)” value with matrix metalloproteases (10 μM) came out at 13%; with matrix metalloproteases (30 μM) it was 24%; in the assay on matrix metalloproteases (100 μM) it was 55%. The compound also yielded an IC50 with rat liver microsomes of 2.1 µM. Moreover, at 10 µM the inhibition with interleukin-1β was 80%.
With `CCOP(=O)(OCC)C(C#N)Cc1ccc(OCc2ccccc2)c(OCc2ccccc2)c1` (stereo not drawn) [Compound 11], the EC50 in assay [1] was greater than 10 µg/mL; in assay [2], greater than 10 µg/mL; in assay [4], 10 to 30 µg/mL (≈ 20.9 to 62.6 µM). Also, in assay [6], the IC50 fell in the range of 6 to 10 µg/mL (≈ 12.5 to 20.9 µM).
As for `CCOP(=O)(OCC)/C(C#N)=C\c1ccc(OC)c(OC)c1` [Compound 37, Z- and E-2-(diethoxyphosphinyl)-3-(3,4-dimethoxyphenyl) acrylonitrile], the EC50 in assay [1] is roughly 10 µg/mL (≈ 30.7 µM); in [2], roughly 3 µg/mL (≈ 9.22 µM); in [3], roughly 1 µg/mL (≈ 3.07 µM); in assay [4], roughly 3 µg/mL (≈ 9.22 µM). Further, the IC50 in assay [5] lay within 0.1 to 0.3 µg/mL (≈ 0.307 to 0.922 µM); in [6], 1 to 3 µg/mL (≈ 3.07 to 9.22 µM). Besides, the inhibition at 100 µM is 55% in the assay with RAW 264.7 cells [7] (incubation for 2.5 hours) and 100% in the assay on RAW 264.7 cells [8]. Further, in the assay with phosphodiesterase III, the “inhibition of enzyme activity (phosphodiesterase III)” value stood at 39%.
For `CCOP(=O)(OCC)C(C#N)=Cc1cc(OC)ccc1OC` [Compound 30], the EC50 was greater than 10 µg/mL in assay [1], 6 to 10 µg/mL (≈ 18.4 to 30.7 µM) in assay [2], 3 to 6 µg/mL (≈ 9.22 to 18.4 µM) in assay [3] and 10 to 30 µg/mL (≈ 30.7 to 92.2 µM) in [4]. In addition, the IC50 is roughly 10 µg/mL (≈ 30.7 µM) in [5] and 1 to 3 µg/mL (≈ 3.07 to 9.22 µM) in assay [6].

In general, inhibition refers to the change of the read-out against control, counted positive when it falls.
